Biological target: KRas (Homo sapiens, UniProt P01116, G12C)
Test: KRas degradation in NCI-H2030 cells by Western blot, normalized to GAPDH (data of Table 14)
Type: cell-based
Set-up: host or cells: NCI-H2030
Details: for Dmax: NCI-H2030
Summary of the method: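 Readout: GAPDH-normalized KRas immunoblot signal, expressed as percent degradation versus 0.1% DMSO vehicle. Treatment: 0.3, 1, 3 μM after 24 h starvation; 24 h (VHL-based) or 72 h (others).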

SMILES	Percent Degradation at Indicated Concentration (μM) (H2030 cells, 3 μM)	Percent Degradation at Indicated Concentration (μM) (H2030, 0.3 μM)	Percent Degradation at Indicated Concentration (μM) (H2030, 1 μM)	Percent Degradation at Indicated Concentration (μM) (H2030, 3 μM)	Dmax	also measured
CN(CCOCCOc1ccc2c(c1)C(=O)N(C1CCC(=O)NC1=O)C2=O)C(=O)CCNc1nc(N2CCN(C(=O)C(O)O)CC2)c2cc(Cl)c(-c3c(O)cccc3F)c(F)c2n1 [compound 149, 3-(((S)-6-chloro-4-(4-(2,2-dihydroxyacetyl)piperazin-1-yl)-8-fluoro-7-(2-fluoro-6-hydroxyphenyl)quinazolin-2-yl)amino)-N-(2-(2-((2-(2,6-dioxopiperidin-3-yl)-1,3-dioxoisoindolin-5-yl)oxy)ethoxy)ethyl)-N-methylpropanamide]	C (Percent Degradation: C ≤ 35)	–	–	–	–	–
CN(CCOCCOc1ccc2c(c1)C(=O)N(C1CCC(=O)NC1=O)C2=O)C(=O)CCNc1nc(N2CCN(C(=O)C(O)O)CC2)c2cc(Cl)c(-c3c(O)cccc3F)c(F)c2n1 [compound 150, 3-(((R)-6-chloro-4-(4-(2,2-dihydroxyacetyl)piperazin-1-yl)-8-fluoro-7-(2-fluoro-6-hydroxyphenyl)quinazolin-2-yl)amino)-N-(2-(2-((2-(2,6-dioxopiperidin-3-yl)-1,3-dioxoisoindolin-5-yl)oxy)ethoxy)ethyl)-N-methylpropanamide]	C (Percent Degradation: C ≤ 35)	–	–	–	–	Percent Degradation at Indicated Concentration (μM) (H2030 cells, 0.3 μM): C (Percent Degradation: C ≤ 35); Percent Degradation at Indicated Concentration (μM) (H2030 cells, 1 μM): C (Percent Degradation: C ≤ 35)
CN(CCOCCOCCOc1ccc2c(c1)C(=O)N(C1CCC(=O)NC1=O)C2=O)C(=O)CCNc1nc(N2CCN(C(=O)C(O)O)CC2)c2cc(Cl)c(-c3c(O)cccc3F)c(F)c2n1 [compound 151, 3-(((S)-6-chloro-4-(4-(2,2-dihydroxyacetyl)piperazin-1-yl)-8-fluoro-7-(2-fluoro-6-hydroxyphenyl)quinazolin-2-yl)amino)-N-(2-(2-(2-((2-(2,6-dioxopiperidin-3-yl)-1,3-dioxoisoindolin-5-yl)oxy)ethoxy)ethoxy)ethyl)-N-methylpropanamide]	C (Percent Degradation: C ≤ 35)	–	–	–	–	–
CN(CCOCCOCCOc1ccc2c(c1)C(=O)N(C1CCC(=O)NC1=O)C2=O)C(=O)CCNc1nc(N2CCN(C(=O)C(O)O)CC2)c2cc(Cl)c(-c3c(O)cccc3F)c(F)c2n1 [compound 152, 3-(((R)-6-chloro-4-(4-(2,2-dihydroxyacetyl)piperazin-1-yl)-8-fluoro-7-(2-fluoro-6-hydroxyphenyl)quinazolin-2-yl)amino)-N-(2-(2-(2-((2-(2,6-dioxopiperidin-3-yl)-1,3-dioxoisoindolin-5-yl)oxy)ethoxy)ethoxy)ethyl)-N-methylpropanamide]	C (Percent Degradation: C ≤ 35)	–	–	–	–	Percent Degradation at Indicated Concentration (μM) (H2030 cells, 0.3 μM): C (Percent Degradation: C ≤ 35); Percent Degradation at Indicated Concentration (μM) (H2030 cells, 1 μM): C (Percent Degradation: C ≤ 35)
O=C1CCC(N2C(=O)c3ccc(OCCOCC/C=C/C(=O)N4CCN(c5ncnc6c(F)c(-c7cc(O)cc8ccccc78)c(Cl)cc56)CC4)cc3C2=O)C(=O)N1 (stereo not shown) [compound 168, (E)-5-(2-((5-(4-(6-chloro-8-fluoro-7-(3-hydroxynaphthalen-1-yl)quinazolin-4-yl)piperazin-1-yl)-5-oxopent-3-en-1-yl)oxy)ethoxy)-2-(2,6-dioxopiperidin-3-yl)isoindoline-1,3-dione]	–	C (Percent Degradation: C ≤ 35)	C (Percent Degradation: C ≤ 35)	C (Percent Degradation: C ≤ 35)	≤ 35%	–
O=C1CCC(N2C(=O)c3ccc(OCCOCCOCCOCC/C=C/C(=O)N4CCN(c5ncnc6c(F)c(-c7cc(O)cc8ccccc78)c(Cl)cc56)CC4)cc3C2=O)C(=O)N1 (stereo not shown) [compound 170, (E)-5-(2-(2-(2-((5-(4-(6-chloro-8-fluoro-7-(3-hydroxynaphthalen-1-yl)quinazolin-4-yl)piperazin-1-yl)-5-oxopent-3-en-1-yl)oxy)ethoxy)ethoxy)ethoxy)-2-(2,6-dioxopiperidin-3-yl)isoindoline-1,3-dione]	–	C (Percent Degradation: C ≤ 35)	C (Percent Degradation: C ≤ 35)	C (Percent Degradation: C ≤ 35)	≤ 35%	–
CN(C)C(=O)CCNc1nc(N2CCN(C(=O)/C=C/CCOCCOc3ccc4c(c3)C(=O)N(C3CCC(=O)NC3=O)C4=O)CC2)c2cc(Cl)c(-c3cc(O)cc4ccccc34)c(F)c2n1 (stereo not shown) [compound 172, (E)-3-((6-chloro-4-(4-(5-(2-((2-(2,6-dioxopiperidin-3-yl)-1,3-dioxoisoindolin-5-yl)oxy)ethoxy)pent-2-enoyl)piperazin-1-yl)-8-fluoro-7-(3-hydroxynaphthalen-1-yl)quinazolin-2-yl)amino)-N,N-dimethylpropanamide]	–	C (Percent Degradation: C ≤ 35)	C (Percent Degradation: C ≤ 35)	C (Percent Degradation: C ≤ 35)	≤ 35%	–
CN(C)C(=O)CCNc1nc(N2CCN(C(=O)/C=C/CCOCCOCCOCCOc3ccc4c(c3)C(=O)N(C3CCC(=O)NC3=O)C4=O)CC2)c2cc(Cl)c(-c3cc(O)cc4ccccc34)c(F)c2n1 (stereo not shown) [compound 174, (E)-3-((6-chloro-4-(4-(5-(2-(2-(2-((2-(2,6-dioxopiperidin-3-yl)-1,3-dioxoisoindolin-5-yl)oxy)ethoxy)ethoxy)ethoxy)pent-2-enoyl)piperazin-1-yl)-8-fluoro-7-(3-hydroxynaphthalen-1-yl)quinazolin-2-yl)amino)-N,N-dimethylpropanamide]	–	C (Percent Degradation: C ≤ 35)	C (Percent Degradation: C ≤ 35)	C (Percent Degradation: C ≤ 35)	≤ 35%	–
Cc1ncsc1-c1ccc([C@H](C)NC(=O)[C@@H]2C[C@@H](O)CN2C(=O)[C@@H](NC(=O)COCCOCCN(C)C(=O)CCNc2nc(N3CCN(C(N)=O)CC3)c3cc(Cl)c(-c4cc(O)cc5ccccc45)c(F)c3n2)C(C)(C)C)cc1 [compound 182, 4-(6-chloro-8-fluoro-2-(((S)-14-((2S,4R)-4-hydroxy-2-(((S)-1-(4-(4-methylthiazol-5-yl)phenyl)ethyl)carbamoyl)pyrrolidine-1-carbonyl)-4,15,15-trimethyl-3,12-dioxo-7,10-dioxa-4,13-diazahexadecyl)amino)-7-(3-hydroxynaphthalen-1-yl)quinazolin-4-yl)piperazine-1-carboxamide]	–	C (Percent Degradation: C ≤ 35)	C (Percent Degradation: C ≤ 35)	C (Percent Degradation: C ≤ 35)	≤ 35%	–
Cc1ncsc1-c1ccc([C@H](C)NC(=O)[C@@H]2C[C@@H](O)CN2C(=O)[C@@H](NC(=O)COCCOCCOCCOCCN(C)C(=O)CCNc2nc(N3CCN(C(N)=O)CC3)c3cc(Cl)c(-c4cc(O)cc5ccccc45)c(F)c3n2)C(C)(C)C)cc1 [compound 184, 4-(6-chloro-8-fluoro-2-(((S)-20-((2S,4R)-4-hydroxy-2-(((S)-1-(4-(4-methylthiazol-5-yl)phenyl)ethyl)carbamoyl)pyrrolidine-1-carbonyl)-4,21,21-trimethyl-3,18-dioxo-7,10,13,16-tetraoxa-4,19-diazadocosyl)amino)-7-(3-hydroxynaphthalen-1-yl)quinazolin-4-yl)piperazine-1-carboxamide]	–	C (Percent Degradation: C ≤ 35)	C (Percent Degradation: C ≤ 35)	C (Percent Degradation: C ≤ 35)	≤ 35%	–
CCC(=O)N1CCN(c2nc(NCCC(=O)N(C)CCOCC(=O)N[C@H](C(=O)N3C[C@H](O)C[C@H]3C(=O)N[C@@H](C)c3ccc(-c4scnc4C)cc3)C(C)(C)C)nc3c(F)c(-c4cc(O)cc5ccccc45)c(Cl)cc23)CC1 [compound 186, (2S,4R)-1-((2S)-2-(2-(2-(3-((6-chloro-8-fluoro-7-(3-hydroxynaphthalen-1-yl)-4-(4-propionylpiperazin-1-yl)quinazolin-2-yl)amino)-N-methylpropanamido)ethoxy)acetamido)-3,3-dimethylbutanoyl)-4-hydroxy-N-((S)-1-(4-(4-methylthiazol-5-yl)phenyl)ethyl)pyrrolidine-2-carboxamide]	–	–	–	–	–	Percent Degradation at Indicated Concentration (μM): 0.3 (H2030 cells, 0.3 μM): C (C ≤ 35); Percent Degradation at Indicated Concentration (μM): 1 (H2030 cells, 1 μM): C (C ≤ 35); Percent Degradation at Indicated Concentration (μM): 3 (H2030 cells, 3 μM): C (C ≤ 35); Dmax (H2030 cells): ≤ 35%
CCC(=O)N1CCN(c2nc(NCCC(=O)N(C)CCOCCOCC(=O)N[C@H](C(=O)N3C[C@H](O)C[C@H]3C(=O)N[C@@H](C)c3ccc(-c4scnc4C)cc3)C(C)(C)C)nc3c(F)c(-c4cc(O)cc5ccccc45)c(Cl)cc23)CC1 [compound 187, (2S,4R)-1-((2S)-2-(tert-butyl)-15-((6-chloro-8-fluoro-7-(3-hydroxynaphthalen-1-yl)-4-(4-propionylpiperazin-1-yl)quinazolin-2-yl)amino)-12-methyl-4,13-dioxo-6,9-dioxa-3,12-diazapentadecanoyl)-4-hydroxy-N-((S)-1-(4-(4-methylthiazol-5-yl)phenyl)ethyl)pyrrolidine-2-carboxamide]	–	–	–	–	–	Percent Degradation at Indicated Concentration (μM): 0.3 (H2030 cells, 0.3 μM): C (C ≤ 35); Percent Degradation at Indicated Concentration (μM): 1 (H2030 cells, 1 μM): C (C ≤ 35); Percent Degradation at Indicated Concentration (μM): 3 (H2030 cells, 3 μM): C (C ≤ 35); Dmax (H2030 cells): ≤ 35%

Reference: patent US12552783B2, “Modulators of proteolysis and associated methods of use” (Arvinas Operations, Inc., priority 2018, dated 2026)
